Experimental data: PMC9184463, “Structural basis of ligand binding modes of human EAAT2” (Nature Communications, 2022)
Where “and” joins values, the source holds several entries; their conditions need not be identical. Equal entries are not always repeated.

Columns and labels:
hEAAT2 mutant L467I = molecular target: T1, hEAAT2 mutant L467I (Homo sapiens, UniProt P43004, L467I); test: whole-cell patch-clamp, hEAAT2 mutant L467I in HEK293T cells; assay type: cell-based; settings: 0 mV; for WAY-213613-inhibited current, normalized (MEAN): L467I
T1 construct: Strep Tag II (N); superfolder GFP (sfGFP) (N); expressed in transfected cells; host or cells: HEK293T
T1 sequence (P43004 whole entry L467I): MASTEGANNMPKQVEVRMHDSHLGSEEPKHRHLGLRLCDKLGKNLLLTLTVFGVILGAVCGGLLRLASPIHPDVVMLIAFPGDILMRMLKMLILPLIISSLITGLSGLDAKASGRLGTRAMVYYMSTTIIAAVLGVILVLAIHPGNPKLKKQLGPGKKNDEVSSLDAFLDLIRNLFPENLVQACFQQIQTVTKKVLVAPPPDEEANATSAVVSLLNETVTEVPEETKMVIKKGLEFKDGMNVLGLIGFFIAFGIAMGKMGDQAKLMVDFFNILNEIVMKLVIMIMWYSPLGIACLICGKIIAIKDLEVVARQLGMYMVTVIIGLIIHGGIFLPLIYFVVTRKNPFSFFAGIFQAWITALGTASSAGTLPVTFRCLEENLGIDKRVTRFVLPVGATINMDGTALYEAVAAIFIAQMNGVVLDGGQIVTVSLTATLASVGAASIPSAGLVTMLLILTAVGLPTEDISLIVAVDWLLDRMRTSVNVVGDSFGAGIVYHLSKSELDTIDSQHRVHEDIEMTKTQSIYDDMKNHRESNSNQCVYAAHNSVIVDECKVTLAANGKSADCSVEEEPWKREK
Method: (§1) Human embryonic kidney 293T (HEK293T) cells were cultured in Dulbecco’s Modified Eagle Medium (DMEM, Gibco) media supplemented with 15% (v/v) fetal bovine serum (FBS, PAN-Biotech) at 37 °C with 5% CO2. HEK293T cells were grown in the culture dishes (d = 3.5 cm) (Thermo Fisher Scientific) for 24 h and then 1 μg hEAAT2 wild-type and mutant plasmids for per dishes were used to transiently transfect HEK293T using 0.7 μg Lipofectamine 2000 Reagent (Thermo Fisher Scientific). Cells were analyzed using electrophysiological experiments between 24 and 40 h after transfection at room temperature (21–25 °C).
(§2) Electrophysiological experiments were performed as described previously with a minor modification. External buffer contained 140 mM NaCl, 2 mM MgCl2, 2 mM CaCl2, and 10 mM HEPES (pH = 7.4 with NaOH and osmolarity of ∼310 mosmol L^−1) and while internal pipette solution comprised of 130 mM NaSCN, 2 mM MgCl2, 10 mM EGTA, 10 mM HEPES (pH = 7.4 with NaOH and osmolarity of ∼310 mosmol L^−1) and 10 mM glutamate. 50 mM WAY-213613 stock solutions were prepared in dimethyl sulfoxide (DMSO), followed by dilutions to working concentrations with the above-mentioned external buffer. […] Whole cell patch-clamp experiment recordings were made from isolated GFP-positive HEK293T cells (hEAAT2 wild type and mutants). In all, 3–6 MΩ was used to fire a polished pipette (Sutter Instrument). […] Cells were immersed in the above-mentioned external buffer supplemented with a specified concentration of glutamate or WAY-213613. Glutamate-induced anion current, Na^+-dependent anion leak current and glutamate transport current or WAY-213613 inhibited anion leak currents were recorded using an EPC-10 amplifier (HEKA Electronic) at a 20 kHz sample rate with low pass filter at 5 kHz. All experiments were executed at 0 mV. After the cell current was stabilized, glutamate or WAY-213613 was sustained at the indicated concentrations from external dosing for at least 6 s. Subsequently, the cell was washed away with external buffer to start a new round of applications or end the experiment. The plateau currents were used for the following calculations. For analysis, the data was acquired by PatchMaster program (HEKA Electronic) at 5 s after recording. Nonlinear dose–response relationships were fitted into a Michaelis–Menten-like equation shown as below to obtain the apparent Km and Ki values in the presence of glutamate or WAY-213613.1 I/Imax=Km/i/C+Km/i In this equation, I represent the current at different glutamate or inhibitor concentrations, and Imax represents the maximal current at the saturating concentration of glutamate or inhibitor. [C] represents the concentration of glutamate or inhibitor. Km/i represents the apparent constant.

hEAAT2 mutant D475A = molecular target: T2, hEAAT2 mutant D475A (Homo sapiens, UniProt P43004, D475A); test: whole-cell patch-clamp, hEAAT2 mutant D475A in HEK293T cells; assay type: cell-based; settings: 0 mV; for WAY-213613-inhibited current, normalized (MEAN): D475A
T2 construct: Strep Tag II (N); superfolder GFP (sfGFP) (N); expressed in transfected cells; host or cells: HEK293T
T2 sequence (P43004 whole entry D475A): as the sequence (P43004 whole entry L467I) above, with I467L, D475A counted along it
Method: as §1, §2

hEAAT2 mutant R478A = molecular target: T3, hEAAT2 mutant R478A (Homo sapiens, UniProt P43004, R478A); test: whole-cell patch-clamp, hEAAT2 mutant R478A in HEK293T cells; assay type: cell-based; settings: 0 mV; for WAY-213613-inhibited current, normalized (MEAN): R478A
T3 construct: Strep Tag II (N); superfolder GFP (sfGFP) (N); expressed in transfected cells; host or cells: HEK293T
T3 sequence (P43004 whole entry R478A): as the sequence (P43004 whole entry L467I) above, with I467L, R478A counted along it
Method: as §1, §2

hEAAT1 = settings: cited from earlier work
wild-type hEAAT2 = molecular target: T4, wild-type hEAAT2 (Homo sapiens, UniProt P43004); test: whole-cell patch-clamp of hEAAT2-associated anion current, wild-type hEAAT2 in HEK293T cells; assay type: cell-based; settings: for WAY-213613-inhibited current, normalized (MEAN): WT
T4 construct: Strep Tag II (N); superfolder GFP (sfGFP) (N); expressed in transfected cells; host or cells: HEK293T
T4 sequence (P43004 whole entry, the tested form may be a part): as the sequence (P43004 whole entry L467I) above, with I467L counted along it
Method: as §1, §2

hEAAT2 mutant I464V = molecular target: T5, hEAAT2 mutant I464V (Homo sapiens, UniProt P43004, I464V); test: whole-cell patch-clamp, hEAAT2 mutant I464V in HEK293T cells; assay type: cell-based; settings: 0 mV; for WAY-213613-inhibited current, normalized (MEAN): I464V
T5 construct: Strep Tag II (N); superfolder GFP (sfGFP) (N); expressed in transfected cells; host or cells: HEK293T
T5 sequence (P43004 whole entry I464V): as the sequence (P43004 whole entry L467I) above, with I464V, I467L counted along it
Method: as §1, §2

[1] = tested on: ionotropic and metabotropic glutamate receptors; settings: sentence of earlier manuscript version quoted by reviewer; no reference given; cited from earlier work
hEAAT3 = settings: cited from earlier work
hEAAT2 = settings: cited from earlier work
hEAAT2 mutant V468I = molecular target: T6, hEAAT2 mutant V468I (Homo sapiens, UniProt P43004, V468I); test: whole-cell patch-clamp, hEAAT2 mutant V468I in HEK293T cells; assay type: cell-based; settings: 0 mV; for WAY-213613-inhibited current, normalized (MEAN): V468I
T6 construct: Strep Tag II (N); superfolder GFP (sfGFP) (N); expressed in transfected cells; host or cells: HEK293T
T6 sequence (P43004 whole entry V468I): as the sequence (P43004 whole entry L467I) above, with I467L, V468I counted along it
Method: as §1, §2

[2] = 0.03 μM WAY-213613, normalized to current at 30 μM
[3] = 0.1 μM WAY-213613, normalized to current at 30 μM
[4] = 0.3 μM WAY-213613, normalized to current at 30 μM
[5] = 1 μM WAY-213613, normalized to current at 30 μM
[6] = 3 μM WAY-213613, normalized to current at 30 μM
[7] = 10 μM WAY-213613, normalized to current at 30 μM
[8] = 30 μM WAY-213613, normalization reference
[9] = 0.3 μM WAY-213613, normalized to current at 100 μM
[10] = 1 μM WAY-213613, normalized to current at 100 μM
[11] = 3 μM WAY-213613, normalized to current at 100 μM
[12] = 10 μM WAY-213613, normalized to current at 100 μM
[13] = 30 μM WAY-213613, normalized to current at 100 μM
[14] = 100 μM WAY-213613, normalization reference

For `NC(CC(=O)Nc1ccc(Oc2cc(F)c(F)cc2Br)cc1)C(=O)O` (centres unmarked) [WAY-213613], the “WAY-213613-inhibited current, normalized (MEAN)” value (hEAAT2 mutant L467I; [2]) was 0.06992, the “WAY-213613-inhibited current, normalized (MEAN)” value (hEAAT2 mutant L467I; [3]) was 0.1548 and the “WAY-213613-inhibited current, normalized (MEAN)” value (hEAAT2 mutant L467I; [4]) was 0.4253. The “WAY-213613-inhibited current, normalized (MEAN)” value (hEAAT2 mutant L467I; [5]) was 0.7036, the “WAY-213613-inhibited current, normalized (MEAN)” value (hEAAT2 mutant L467I; [6]) was 0.8764 and the “WAY-213613-inhibited current, normalized (MEAN)” value (hEAAT2 mutant L467I; [7]) was 1.001. The “WAY-213613-inhibited current, normalized (MEAN)” value (hEAAT2 mutant L467I; [8]) was 1, the Ki (hEAAT2 mutant L467I; L467I mutant, read-out: apparent Ki) was ~0.46 µM and 0.464 µM and the “WAY-213613-inhibited current, normalized (MEAN)” value (hEAAT2 mutant D475A; [9]) was 0.06104. The “WAY-213613-inhibited current, normalized (MEAN)” value (hEAAT2 mutant D475A; [10]) was 0.08742, the “WAY-213613-inhibited current, normalized (MEAN)” value (hEAAT2 mutant D475A; [11]) was 0.1387 and the “WAY-213613-inhibited current, normalized (MEAN)” value (hEAAT2 mutant D475A; [12]) was 0.2967. The “WAY-213613-inhibited current, normalized (MEAN)” value (hEAAT2 mutant D475A; [13]) was 0.647, the “WAY-213613-inhibited current, normalized (MEAN)” value (hEAAT2 mutant D475A; [14]) was 1 and the Ki (hEAAT2 mutant D475A; D475A mutant, read-out: apparent Ki) was 30.5 µM. For the same molecule, the “WAY-213613-inhibited current, normalized (MEAN)” value (hEAAT2 mutant R478A; [9]) was 0.173, the “WAY-213613-inhibited current, normalized (MEAN)” value (hEAAT2 mutant R478A; [10]) was 0.3915 and the “WAY-213613-inhibited current, normalized (MEAN)” value (hEAAT2 mutant R478A; [11]) was 0.5586. The “WAY-213613-inhibited current, normalized (MEAN)” value (hEAAT2 mutant R478A; [12]) was 0.7927, the “WAY-213613-inhibited current, normalized (MEAN)” value (hEAAT2 mutant R478A; [13]) was 0.9136 and the “WAY-213613-inhibited current, normalized (MEAN)” value (hEAAT2 mutant R478A; [14]) was 1. The Ki (hEAAT2 mutant R478A; R478A mutant, read-out: apparent Ki) was 1.68 µM, the IC50 (hEAAT1; hEAAT1) was 5 µM and the “selectivity (affinity) for hEAAT2 over hEAAT1” value (hEAAT1; hEAAT2 over hEAAT1) was 59 fold. For the same molecule, the “WAY-213613-inhibited current, normalized (MEAN)” value (wild-type hEAAT2; 0.01 μM WAY-213613, 0 mV, normalized to current at 30 μM WAY-213613) was 0.1531, the “WAY-213613-inhibited current, normalized (MEAN)” value (wild-type hEAAT2; 0.03 μM WAY-213613, 0 mV, normalized to current at 30 μM WAY-213613) was 0.3093 and the “WAY-213613-inhibited current, normalized (MEAN)” value (wild-type hEAAT2; 0.1 μM WAY-213613, 0 mV, normalized to current at 30 μM WAY-213613) was 0.5406. For the same molecule, the “WAY-213613-inhibited current, normalized (MEAN)” value (wild-type hEAAT2; 0.3 μM WAY-213613, 0 mV, normalized to current at 30 μM WAY-213613) was 0.7864, the “WAY-213613-inhibited current, normalized (MEAN)” value (wild-type hEAAT2; 1 μM WAY-213613, 0 mV, normalized to current at 30 μM WAY-213613) was 0.9254 and the “WAY-213613-inhibited current, normalized (MEAN)” value (wild-type hEAAT2; 3 μM WAY-213613, 0 mV, normalized to current at 30 μM WAY-213613) was 0.9686. For the same molecule, the “WAY-213613-inhibited current, normalized (MEAN)” value (wild-type hEAAT2; 30 μM WAY-213613, 0 mV, normalization reference) was 1, the “effect of inhibitor on anion leak conductance” value (wild-type hEAAT2; wild-type hEAAT2) was “block the anion leak conductance” and the Ki (wild-type hEAAT2; wild-type hEAAT2, HEK293T, 0 mV, Michaelis-Menten-like fit, read-out: apparent Ki (inhibition of anion leak current)) was 0.07 ± 0.03 µM. The “WAY-213613-inhibited current, normalized (MEAN)” value (hEAAT2 mutant I464V; [2]) was 0.1438, the “WAY-213613-inhibited current, normalized (MEAN)” value (hEAAT2 mutant I464V; [3]) was 0.3695 and the “WAY-213613-inhibited current, normalized (MEAN)” value (hEAAT2 mutant I464V; [4]) was 0.6353. The “WAY-213613-inhibited current, normalized (MEAN)” value (hEAAT2 mutant I464V; [5]) was 0.8468, the “WAY-213613-inhibited current, normalized (MEAN)” value (hEAAT2 mutant I464V; [6]) was 0.8861 and the “WAY-213613-inhibited current, normalized (MEAN)” value (hEAAT2 mutant I464V; [7]) was 0.98. The “WAY-213613-inhibited current, normalized (MEAN)” value (hEAAT2 mutant I464V; [8]) was 1, the Ki (hEAAT2 mutant I464V; I464V mutant, read-out: apparent Ki) was ~0.17 µM and 0.166 µM and the “effect on ionotropic and metabotropic glutamate receptors” value [1] was “no effect”. The “selectivity (affinity) for hEAAT2 over hEAAT3” value (hEAAT3; hEAAT2 over hEAAT3) was 44 fold, the IC50 (hEAAT3; hEAAT3) was 3.8 µM and the IC50 (hEAAT2) was 0.085 µM. The “WAY-213613-inhibited current, normalized (MEAN)” value (hEAAT2 mutant V468I; [2]) was 0.136, the “WAY-213613-inhibited current, normalized (MEAN)” value (hEAAT2 mutant V468I; [3]) was 0.3481 and the “WAY-213613-inhibited current, normalized (MEAN)” value (hEAAT2 mutant V468I; [4]) was 0.6012. The “WAY-213613-inhibited current, normalized (MEAN)” value (hEAAT2 mutant V468I; [5]) was 0.8026, the “WAY-213613-inhibited current, normalized (MEAN)” value (hEAAT2 mutant V468I; [6]) was 0.923 and the “WAY-213613-inhibited current, normalized (MEAN)” value (hEAAT2 mutant V468I; [7]) was 0.993. The “WAY-213613-inhibited current, normalized (MEAN)” value (hEAAT2 mutant V468I; [8]) was 1 and the Ki (hEAAT2 mutant V468I; V468I mutant, read-out: apparent Ki) was ~0.2 µM and 0.196 µM.
